Experimental data published in patent US9890147B2 (BAYER PHARMA AKTIENGESELLSCHAFT, priority 2012, dated 2018).

What was measured:
BRD4 (BD1) = biological target: T1, BRD4 (BD1) (Homo sapiens, UniProt O60885); assay: Binding assay BRD4/acetylated peptide H4 (TR-FRET protein-protein interaction assay)
T1 construct: with relatively long constructs also being possible, preferably amino acids 44-168; made in house; host or cells: E. coli
Source text: Binding Assay BRD4/Acetylated Peptide H4 (“PRO”)
To assess the BRD4 binding of the substances described in the present application, their ability to inhibit the interaction between BRD4 (BD1) and acetylated histone H4 in a dose-dependent manner was quantified (Filippakopoulos et al., Cell, 2012, 149: 214-231).
For this purpose, use was made of a time-resolved fluorescence resonance energy transfer (TR-FRET) assay which measured binding between N-terminally His6-tagged BRD4 (BD1) (amino acids 67-152, with relatively long constructs also being possible, preferably amino acids 44-168) and a synthetic acetylated histone H4 (Ac—H4) peptide having the sequence GRGK(Ac)GGK(Ac)GLGK(Ac)GGAK(Ac)RHGSGSK-biotin. The recombinant BRD4 protein-produced according to Filippakopoulos et al., Cell, 2012, 149: 214-231—was expressed in E. coli and purified by (Ni-NTA) affinity and (Sephadex G-75) size exclusion chromatography. The Ac—H4 peptide is commercially available, for example from Biosyntan (Berlin, Germany). In a typical assay, 11 different concentrations of each substance (0.1 nM, 0.33 nM, 1.1 nM, 3.8 nM, 13 nM, 44 nM, 0.15 μM, 0.51 μM, 1.7 μM, 5.9 μM and 20 μM) were measured in duplicate on the same microtitre plate. To this end, 100-fold concentrated solutions in DMSO were prepared by serial dilution (1:3.4) of a 2 mM stock solution in a clear 384-well microtitre platte (Greiner Bio-One, Frickenhausen, Germany) 50 nl of these were transferred into a black test plate (Greiner Bio-One, Frickenhausen, Germany). The test was started by addition of 2 μl of a 2.5-fold concentrated BRD4 solution (final concentration usually 10 nM in the […] of the reaction volume) in aqueous assay buffer [50 mM HEPES pH 7.5. 50 mM sodium chloride (NaCl), 0.25 mM CHAPS and 0.05% serum albumin (BSA)] to the substances in the test plate. This was followed by a 10-minute incubation step at 22° C. to pre-equilibrate putative complexes between BRD4 and the substances.
The mixture was then incubated in the dark for one hour at 22° C. and then for at least 3 hours and at most overnight at 4° C. Formation of BRD4/Ac—H4 complexes was determined by measuring the resonance energy transfer from the streptavidin-Eu cryptate to the anti-6His-XL665 antibody in the reaction. To this end, the fluorescence emission was measured at 620 nm and 665 nm after excitation at 330-350 nm in a TR-FRET measuring device, for example a Rubystar or Pherastar (both from BMG Lab Technologies, Offenburg, Germany) or a Viewlux (Perkin-Elmer). The ratio of the emission at 665 nm and at […] was used as an indicator for the amount of BRD4/Ac—H4 complexes formed.
The data obtained (ratios) were normalized, with 0% inhibition corresponding to the mean of the measured values of a set of controls (usually 32 data points) comprising all reagents. Here, 50 nl of DMSO (100%) were used instead of test substances. An inhibition of 100% corresponded to the mean of the measured values of a set of controls (usually 32 data points) comprising all reagents except for BRD4. The IC50 was determined by regression analysis based on a 4-parameter equation (minimum, maximum, IC50, Hill; Y=Max+(Min−Max)/(1+(X/IC 50)^Hill)).

MOLM-13 cells = assay: Cell proliferation assay (alamarBlue), MOLM-13; assay type: cell-based; details: Homo sapiens, 96 hours incubation, inhibition of cell proliferation
Method: In accordance with the invention, the capability of the substances to inhibit cell proliferation was determined Cell viability was determined using the alamarBlue® reagent (Invitrogen) in a Victor X3 Multilabel Reader (Perkin Elmer). The excitation wavelength was 530 nm and the emission wavelenth […].
The MOLM-13 cells (DSMZ, ACC 554) were sown at a concentration of 4000 cells/well in 100 μl growth medium (RPMI1640, 10% FCS) on 96-well microtitre plates.
After an overnight incubation at 37° C., the fluorescence values (CI values) were determined. The plates were then treated with various substance dilutions (1E-5 M, 3E-6 M, 1E-6M, 3E-7 M, 1E-7 M, 3E-8 M, 1E-8 M) and incubated at 37° C. for 72 (MV4-11-, LOX-IMVI cells), 96 (MOLM-13-, B16F10-, MDA-MB-431-, Caov-3 cells), 120 (MOLP-8-, KMS-12-PE cells) or 168 (LAPC-4 cells) hours. The fluorescence values (CO values) were then determined. For the data analysis, the CI values were subtracted from the CO values and the results were compared between cells treated with different dilutions of the substance or with buffer solution only. These were used to calculate the IC 50 values (substance concentration required for 50% inhibition of cell proliferation).

## CNC(=O)N1N=C(c2cccc(-c3c(C)noc3C)c2)c2cc(OC)c(OC)cc2CC1C (racemic) [Example 31, (±)-1-[3-(3,5-Dimethylisoxazol-4-yl)phenyl]-7,8-dimethoxy-N,4-dimethyl-4,5-dihydro-3H-2,3-benzodiazepine-3-carboxamide]
BRD4 (BD1)
  IC50: 180 nM
MOLM-13 cells
  IC50: 270 nM

## CNC(=O)N1N=C(c2ccc(Cl)cc2)c2cc(OCCN3CCOCC3)ccc2CC1C (racemic) [Example 32, (±)-1-(4-Chlorophenyl)-N,4-dimethyl-8-[2-(morpholin-4-yl)ethoxy]-4,5-dihydro-3H-2,3-benzodiazepine-3-carboxamide]
BRD4 (BD1)
  IC50: 380 nM
MOLM-13 cells
  IC50: 1180 nM

## CNC(=O)N1N=C(c2ccc(N3CCOC3=O)cc2)c2cc(OC)c(OC)cc2CC1C (racemic) [Example 34, (±)-7,8-Dimethoxy-N,4-dimethyl-1-[4-(2-oxooxazolidin-3-yl)phenyl]-4,5-dihydro-3H-2,3-benzodiazepine-3-carboxamide]
BRD4 (BD1)
  IC50: 50 nM
MOLM-13 cells
  IC50: 350 nM

## CNC(=O)N1N=C(c2ccc(N3CCCCC3=O)cc2)c2cc(OC)c(OC)cc2CC1C (racemic) [Example 35, (±)-7,8-dimethoxy-N,4-dimethyl-1-[4-(2-oxopiperidin-1-yl)phenyl]-4,5-dihydro-3H-2,3-benzodiazepine-3-carboxamide]
BRD4 (BD1)
  IC50: 220 nM
MOLM-13 cells
  IC50: 1470 nM

## CNC(=O)N1N=C(c2ccc(N3CCN(Cc4ccccc4)CC3=O)cc2)c2cc(OC)c(OC)cc2CC1C (racemic) [Example 36, (±)-1-[4-(4-benzyl-2-oxopiperazin-1-yl)phenyl]-7,8-dimethoxy-N,4-dimethyl-4,5-dihydro-3H-2,3-benzodiazepine-3-carboxamide]
BRD4 (BD1)
  IC50: 260 nM
MOLM-13 cells
  IC50: 1160 nM

## CNC(=O)N1N=C(c2ccc(N3CCCN(C)CC3=O)cc2)c2cc(OC)c(OC)cc2CC1C (racemic) [Example 37, (±)-7,8-dimethoxy-N,4-dimethyl-1-[4-(4-methyl-2-oxo-1,4-diazepan-1-yl)phenyl]-4,5-dihydro-3H-2,3-benzodiazepine-3-carboxamide]
BRD4 (BD1)
  IC50: 120 nM
MOLM-13 cells
  IC50: 1130 nM

## CNC(=O)N1N=C(c2ccc(Cl)cc2)c2cc(OCCCN3CCN(C)CC3)ccc2C[C@H]1C [Example 164.1, (4R)-1-(4-chlorophenyl)-N,4-dimethyl-8-[3-(4-methylpiperazin-1-yl)propoxy]-4,5-dihydro-3H-2,3-benzodiazepine-3-carboxamide]
BRD4 (BD1)
  IC50: > 20000 nM

## CNC(=O)N1N=C(c2ccc(N3CCC(OC)CC3)cc2)c2cc(OC)c(OC)cc2C[C@H]1C [Example 179.1, (4R)-7,8-dimethoxy-1-[4-(4-methoxypiperidin-1-yl)phenyl]-N,4-dimethyl-4,5-dihydro-3H-2,3-benzodiazepine-3-carboxamide]
BRD4 (BD1)
  IC50: 3770 nM

## CNC(=O)N1N=C(c2ccc(N3CC(C)(O)C3)cc2)c2cc(OC)c(OC)cc2C[C@H]1C [Example 185.1, (4R)-1-[4-(3-hydroxy-3-methylazetidin-1-yl)phenyl]-7,8-dimethoxy-N,4-dimethyl-4,5-dihydro-3H-2,3-benzodiazepine-3-carboxamide]
BRD4 (BD1)
  IC50: 1490 nM

## CNC(=O)C1CCN(c2ccc(C3=NN(C(=O)NC)[C@H](C)Cc4cc(OC)c(OC)cc43)cc2)CC1 [Example 189.2, (4R)-7,8-dimethoxy-N,4-dimethyl-1-{4-[4-(methylcarbamoyl)piperidin-1-yl]phenyl}-4,5-dihydro-3H-2,3-benzodiazepine-3-carboxamide]
BRD4 (BD1)
  IC50: 17400 nM

## CNC(=O)N1N=C(c2ccc(N3CC[C@H](O)C3)cc2)c2cc(OC)c(OC)cc2C[C@@H]1C [Example 190.1, (4S)-1-{4-[(3S)-3-hydroxypyrrolidin-1-yl]phenyl}-7,8-dimethoxy-N,4-dimethyl-4,5-dihydro-3H-2,3-benzodiazepine-3-carboxamide]
BRD4 (BD1)
  IC50: 30 nM

## CNC(=O)N1N=C(c2ccc(N3CCNC(=O)C3)cc2)c2cc(OC)c(OC)cc2C[C@@H]1C [Example 194, (4S)-7,8-dimethoxy-N,4-dimethyl-1-[4-(3-oxopiperazin-1-yl)phenyl]-4,5-dihydro-3H-2,3-benzodiazepine-3-carboxamide]
BRD4 (BD1)
  IC50: 480 nM

## CNC(=O)N1N=C(c2ccc(N3C[C@@H](C)O[C@@H](C)C3)cc2)c2cc(OC)c(OC)cc2C[C@@H]1C [Example 195, (4S)-1-{4-[(2R,6S)-2,6-dimethylmorpholin-4-yl]phenyl}-7,8-dimethoxy-N,4-dimethyl-4,5-dihydro-3H-2,3-benzodiazepine-3-carboxamide]
BRD4 (BD1)
  IC50: 690 nM

## CNC(=O)N1N=C(c2ccc(N3C[C@@H](C)N[C@@H](C)C3)cc2)c2cc(OC)c(OC)cc2C[C@@H]1C [Example 198, (4S)-1-{4-[(3R,5S)-3,5-dimethylpiperazin-1-yl]phenyl}-7,8-dimethoxy-N,4-dimethyl-4,5-dihydro-3H-2,3-benzodiazepine-3-carboxamide]
BRD4 (BD1)
  IC50: 5300 nM

## CC[C@@H]1Cc2cc(OC)c(OC)cc2C(c2ccc(N3CCNCC3)cc2)=NN1C(=O)NC [Example 202.2, (4R)-4-ethyl-7,8-dimethoxy-N-methyl-1-[4-(piperazin-1-yl)phenyl]-4,5-dihydro-3H-2,3-benzodiazepine-3-carboxamide]
BRD4 (BD1)
  IC50: 6540 nM

## CC[C@@H]1Cc2cc(OC)c(OC)cc2C(c2ccc(N3CCN(S(C)(=O)=O)CC3)cc2)=NN1C(=O)NC [Example 203.2, (4R)-4-ethyl-7,8-dimethoxy-N-methyl-1-{4-[4-(methylsulphonyl)piperazin-1-yl]phenyl}-4,5-dihydro-3H-2,3-benzodiazepine-3-carboxamide]
BRD4 (BD1)
  IC50: 11200 nM

## CNC(=O)N1N=C(c2ccc(Cl)cc2)c2ccc(N3CCOC3=O)cc2C[C@@H]1C [Example 230.1, (4S)-1-(4-chlorophenyl)-N,4-dimethyl-7-(2-oxo-1,3-oxazolidin-3-yl)-4,5-dihydro-3H-2,3-benzodiazepine-3-carboxamide]
BRD4 (BD1)
  IC50: 330 nM

## CNC(=O)N1N=C(c2ccc(-c3c(C)nn(C)c3C)cc2)c2cc(OC(F)(F)F)ccc2C[C@H]1C [Example 249.2, (4R)-N,4-dimethyl-8-(trifluoromethoxy)-1-[4-(1,3,5-trimethyl-1H-pyrazol-4-yl)phenyl]-4,5-dihydro-3H-2,3-benzodiazepine-3-carboxamide]
BRD4 (BD1)
  IC50: 2340 nM

## CNC(=O)N1N=C(c2ccc(N3CCN(C)CC3)cc2)c2cc(OC(F)(F)F)ccc2C[C@H]1C [Example 250.1, (4R)-N,4-dimethyl-1-[4-(4-methyl-1-piperazinyl)phenyl]-8-(trifluoromethoxy)-4,5-dihydro-3H-2,3-benzodiazepine-3-carboxamide]
BRD4 (BD1)
  IC50: 9890 nM

## CCNC(=O)N1N=C(c2ccc(N3CCN(C)CC3)cc2)c2cc(OC)c(OC)cc2C[C@@H]1C [Example 261.1, (4S)—N-Ethyl-7,8-dimethoxy-4-methyl-1-[4-(4-methylpiperazin-1-yl)phenyl]-4,5-dihydro-3H-2,3-benzodiazepine-3-carboxamide]
BRD4 (BD1)
  IC50: 1220 nM
